From US20250152675A1, “I-TYPE RECOMBINANT COLLAGEN WITH HIGH TRANSDERMAL ABSORBABILITY, AND USE THEREOF” (XI'AN GIANT BIOGENE TECHNOLOLGY CO., LTD, priority 2022, published 2025)
Residues, ends and D or L forms follow the SMILES beside them.

Assay: Transdermal penetration through ex vivo mouse skin in a single-chamber diffusion cell, content by BCA kit
Assay type: in vitro ADME, Kunming mice
Details: collagen peptide 5 mg/ml in 0.9% NaCl, diffusion area 2.0 cm^2, 37.5° C.
Protocol: 1. Preparation of Mouse Skin Ex Vivo 10 Kunming mice of 20 to 22 g with half male and half […] were used in the experiment. After the mice were killed, the hairs on the abdomen were removed. Then the skin on the hair-removed area was peeled off, stripped of fat and tendons, and rinsed repeatedly with distilled water. After being washed, the mouse skins were rinsed with normal saline, then treated with 10% glycerol, and stored at −20° C. for use (use up within 7 days).
Single-chamber diffusion cell: The effective diffusion area of the diffusion cell is 2.0 cm^2, the volume of the receiving cell is 14 ml, the length of the custom-made stirrer is 1.4 cm, and the receiving solution is 0.9% NaCl solution.
The stored mouse skin was taken out, thawed, washed with normal saline, and sandwiched between the receiving chamber and the supplying chamber, with the medicated side facing the supplying chamber and the skin side facing the receiving chamber. The temperature of the water bath system was adjusted to 37.5° C., and the stirring speed was adjusted to 100 rpm/min. 0.9% NaCl solution pre-warmed at 37° C. was added to the receiving chamber and the air bubbles were exhausted, in order to reduce the interference, the inner surface of the mouse skin was firstly contacted with the receiving solution without medication and all the receiving solution was replaced. Then the 27 collagen peptides synthesized were prepared into 5 mg/ml solutions using 0.9% NaCl respectively, which were injected into the supplying chamber and firmly adhere to the mouse skin respectively. After 24 h, part of the receiving solution was absorbed with a syringe as the sample solution to determine the transdermal amount of collagen peptide.
The BCA kit method was used to determine the polypeptide content in the sample solution. […]

Row | Structure (SMILES) | 24h penetration amount [µg]
1 | CC(C)C[C@H](NC(=O)CNC(=O)[C@H](C)NC(=O)[C@@H](NC(=O)CNC(=O)[C@@H]1CCCN1C(=O)[C@H](CC(C)C)NC(=O)CNC(=O)[C@H](CCCNC(=N)N)NC(=O)[C@H](C)NC(=O)CNC(=O)[C@H](CCC(N)=O)NC(=O)[C@@H]1CCCN1C(=O)CNC(=O)[C@@H]1CCCN1C(=O)[C@@H]1CCCN1C(=O)CNC(=O)[C@H](CCCNC(=N)N)NC(=O)[C@H](CCC(=O)O)NC(=O)CNC(=O)[C@@H]1CCCN1C(=O)[C@H](CCCNC(=N)N)NC(=O)CNC(=O)[C@@H]1CCCN1C(=O)[C@H](CCCCN)NC(=O)CNC(=O)[C@H](C)NC(=O)[C@H](CCC(=O)O)NC(=O)CNC(=O)[C@H](CC(=O)O)NC(=O)[C@H](CC(=O)O)NC(=O)CNC(=O)[C@H](CC(N)=O)NC(=O)[C@H](CCCCN)NC(=O)CN)[C@@H](C)O)C(=O)N1CCC[C@H]1C(=O)O [compound 2] (H-GKNGDDGEAGKPGRPGERGPPGPQGARGLPGTAGLP-OH; N-terminus and C-terminus assumed) | 2097.44
2 | CSCC[C@H](NC(=O)CNC(=O)[C@@H]1CCCN1C(=O)[C@H](CC(C)C)NC(=O)CNC(=O)[C@H](C)NC(=O)[C@@H](NC(=O)CNC(=O)[C@@H]1CCCN1C(=O)[C@H](CC(C)C)NC(=O)CNC(=O)[C@H](CCCNC(=N)N)NC(=O)[C@H](C)NC(=O)CNC(=O)[C@H](CCC(N)=O)NC(=O)[C@@H]1CCCN1C(=O)CNC(=O)[C@@H]1CCCN1C(=O)[C@@H]1CCCN1C(=O)CNC(=O)[C@H](CCCNC(=N)N)NC(=O)[C@H](CCC(=O)O)NC(=O)CN)[C@@H](C)O)C(=O)N[C@@H](CCCCN)C(=O)NCC(=O)N[C@@H](Cc1c[nH]cn1)C(=O)N[C@@H](CCCNC(=N)N)C(=O)NCC(=O)N[C@@H](Cc1ccccc1)C(=O)N[C@@H](CO)C(=O)NCC(=O)N[C@@H](CC(C)C)C(=O)N[C@@H](CC(=O)O)C(=O)NCC(=O)N[C@@H](C)C(=O)N[C@@H](CCCCN)C(=O)O [compound 3] (H-GERGPPGPQGARGLPGTAGLPGMKGHRGFSGLDGAK-OH; N-terminus and C-terminus assumed) | 2224.03
3 | CSCC[C@H](NC(=O)[C@H](CCC(N)=O)NC(=O)CNC(=O)[C@@H]1CCCN1C(=O)[C@H](C)NC(=O)CNC(=O)[C@H](CC(N)=O)NC(=O)[C@H](CCC(=O)O)NC(=O)CNC(=O)[C@@H]1CCCN1C(=O)[C@H](CO)NC(=O)CNC(=O)[C@@H]1CCCN1C(=O)[C@H](CCC(=O)O)NC(=O)CNC(=O)[C@H](CCCCN)NC(=O)[C@@H]1CCCN1C(=O)CNC(=O)[C@H](C)NC(=O)[C@@H]1CCCN1C(=O)CNC(=O)[C@H](C)NC(=O)[C@H](CC(=O)O)NC(=O)CNC(=O)[C@H](CCCCN)NC(=O)[C@H](C)NC(=O)CN)C(=O)NCC(=O)N1CCC[C@H]1C(=O)N[C@@H](CCCNC(=N)N)C(=O)NCC(=O)N[C@@H](CC(C)C)C(=O)N1CCC[C@H]1C(=O)NCC(=O)N[C@@H](CCC(=O)O)C(=O)N[C@@H](CCCNC(=N)N)C(=O)O [compound 4] (H-GAKGDAGPAGPKGEPGSPGENGAPGQMGPRGLPGER-OH; N-terminus and C-terminus assumed) | 2034.78
4 | CSCC[C@H](NC(=O)[C@H](CCC(N)=O)NC(=O)CNC(=O)[C@@H]1CCCN1C(=O)[C@H](C)NC(=O)CNC(=O)[C@H](CC(N)=O)NC(=O)[C@H](CCC(=O)O)NC(=O)CN)C(=O)NCC(=O)N1CCC[C@H]1C(=O)N[C@@H](CCCNC(=N)N)C(=O)NCC(=O)N[C@@H](CC(C)C)C(=O)N1CCC[C@H]1C(=O)NCC(=O)N[C@@H](CCC(=O)O)C(=O)N[C@@H](CCCNC(=N)N)C(=O)NCC(=O)N[C@@H](CCCNC(=N)N)C(=O)N1CCC[C@H]1C(=O)NCC(=O)N[C@@H](C)C(=O)N1CCC[C@H]1C(=O)NCC(=O)N1CCC[C@H]1C(=O)N[C@@H](C)C(=O)NCC(=O)N[C@@H](C)C(=O)N[C@@H](CCCNC(=N)N)C(=O)NCC(=O)N[C@@H](CC(N)=O)C(=O)N[C@@H](CC(=O)O)C(=O)NCC(=O)N[C@@H](C)C(=O)N[C@H](C(=O)O)[C@@H](C)O [compound 5] (H-GENGAPGQMGPRGLPGERGRPGAPGPAGARGNDGAT-OH; N-terminus and C-terminus assumed) | 2123.45
5 | C[C@H](NC(=O)CNC(=O)[C@@H](NC(=O)[C@H](C)NC(=O)CNC(=O)[C@H](CC(=O)O)NC(=O)[C@H](CC(N)=O)NC(=O)CNC(=O)[C@H](CCCNC(=N)N)NC(=O)[C@H](C)NC(=O)CNC(=O)[C@H](C)NC(=O)[C@@H]1CCCN1C(=O)CNC(=O)[C@@H]1CCCN1C(=O)[C@H](C)NC(=O)CNC(=O)[C@@H]1CCCN1C(=O)[C@H](CCCNC(=N)N)NC(=O)CNC(=O)[C@H](CCCNC(=N)N)NC(=O)[C@H](CCC(=O)O)NC(=O)CN)[C@@H](C)O)C(=O)N[C@@H](C)C(=O)NCC(=O)N1CCC[C@H]1C(=O)N1CCC[C@H]1C(=O)NCC(=O)N1CCC[C@H]1C(=O)N[C@H](C(=O)NCC(=O)N1CCC[C@H]1C(=O)N[C@@H](C)C(=O)NCC(=O)N1CCC[C@H]1C(=O)N1CCC[C@H]1C(=O)O)[C@@H](C)O [compound 6] (H-GERGRPGAPGPAGARGNDGATGAAGPPGPTGPAGPP-OH; N-terminus and C-terminus assumed) | 2233.35

Now from value to compound:

Row | 24h penetration amount [µg] | Structure (SMILES)
6 | 2189.90 | CC(C)C[C@H](NC(=O)CNC(=O)[C@@H](NC(=O)[C@@H]1CCCN1C(=O)CNC(=O)[C@@H]1CCCN1C(=O)[C@H](CCC(=O)O)NC(=O)CNC(=O)[C@H](CCCNC(=N)N)NC(=O)[C@H](C)NC(=O)CNC(=O)[C@H](CCCNC(=N)N)NC(=O)[C@H](CCCCN)NC(=O)CNC(=O)[C@H](CCC(=O)O)NC(=O)[C@H](CCC(=O)O)NC(=O)CNC(=O)[C@H](C)NC(=O)[C@@H]1CCCN1C(=O)CNC(=O)[C@@H]1CCCN1C(=O)[C@@H]1CCCN1C(=O)CNC(=O)[C@H](CCC(N)=O)NC(=O)[C@@H](NC(=O)CNC(=O)[C@@H](NC(=O)[C@@H]1CCCN1C(=O)CN)C(C)C)C(C)C)[C@@H](C)O)C(=O)N1CCC[C@H]1C(=O)NCC(=O)N1CCC[C@H]1C(=O)N1CCC[C@H]1C(=O)NCC(=O)N[C@@H](CCC(=O)O)C(=O)N[C@@H](CCCNC(=N)N)C(=O)O [compound 7] (H-GPVGVQGPPGPAGEEGKRGARGEPGPTGLPGPPGER-OH; N-terminus and C-terminus assumed)
7 | 2013.46 | CC(C)C[C@H](NC(=O)CNC(=O)[C@@H](NC(=O)[C@@H]1CCCN1C(=O)CNC(=O)[C@@H]1CCCN1C(=O)[C@H](CCC(=O)O)NC(=O)CNC(=O)[C@H](CCCNC(=N)N)NC(=O)[C@H](C)NC(=O)CN)[C@@H](C)O)C(=O)N1CCC[C@H]1C(=O)NCC(=O)N1CCC[C@H]1C(=O)N1CCC[C@H]1C(=O)NCC(=O)N[C@@H](CCC(=O)O)C(=O)N[C@@H](CCCNC(=N)N)C(=O)NCC(=O)NCC(=O)N1CCC[C@H]1C(=O)NCC(=O)N[C@@H](CO)C(=O)N[C@@H](CCCNC(=N)N)C(=O)NCC(=O)N[C@@H](Cc1ccccc1)C(=O)N1CCC[C@H]1C(=O)NCC(=O)N[C@@H](C)C(=O)N[C@@H](CC(=O)O)C(=O)NCC(=O)N[C@H](C(=O)N[C@@H](C)C(=O)NCC(=O)N1CCC[C@H]1C(=O)N[C@@H](CCCCN)C(=O)O)C(C)C [compound 8] (H-GARGEPGPTGLPGPPGERGGPGSRGFPGADGVAGPK-OH; N-terminus and C-terminus assumed)
